Measurements: US8192962B2, “Processes for detecting toxic substances” (Daikin Industries, Ltd., priority 2001, dated 2012)

System: Stress protein genes
Assay: DNA chip mRNA expression in yeast, stress protein genes (Table 6)
Assay type: cell-based, Saccharomyces cerevisiae S288C
Method in brief: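 Values are treated/untreated fluorescence ratios from a whole-genome yeast DNA chip hybridized over 12 hours at 65° C with Cy3- or Cy5-labelled cDNA from poly(A) mRNA. Log-phase S288C yeast in YPD at 25° C had received a single toxic chemical for two hours, dosed to slow growth without killing.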

manganese ethylenebis(dithiocarbamate) [(8)]
The level of expressed mRNA in the presence of chemical substance/The level of expressed mRNA in the absence of chemical substance (yeast gene YAL005C): 0.9
The level of expressed mRNA in the presence of chemical substance/The level of expressed mRNA in the absence of chemical substance (yeast gene YAL015C): 1.1
The level of expressed mRNA in the presence of chemical substance/The level of expressed mRNA in the absence of chemical substance (yeast gene YBL075C): 0.8
The level of expressed mRNA in the presence of chemical substance/The level of expressed mRNA in the absence of chemical substance (yeast gene YBL093C): 1.6
The level of expressed mRNA in the presence of chemical substance/The level of expressed mRNA in the absence of chemical substance (yeast gene YBR044C): 1.1
The level of expressed mRNA in the presence of chemical substance/The level of expressed mRNA in the absence of chemical substance (yeast gene YBR054W): 2.1
The level of expressed mRNA in the presence of chemical substance/The level of expressed mRNA in the absence of chemical substance (yeast gene YBR067C): 1.1
The level of expressed mRNA in the presence of chemical substance/The level of expressed mRNA in the absence of chemical substance (yeast gene YBR072W): 2.1
The level of expressed mRNA in the presence of chemical substance/The level of expressed mRNA in the absence of chemical substance (yeast gene YBR126C): 0.6
The level of expressed mRNA in the presence of chemical substance/The level of expressed mRNA in the absence of chemical substance (yeast gene YBR169C): 0.9
The level of expressed mRNA in the presence of chemical substance/The level of expressed mRNA in the absence of chemical substance (yeast gene YCL035C): 1.4
The level of expressed mRNA in the presence of chemical substance/The level of expressed mRNA in the absence of chemical substance (yeast gene YCR021C): 0.8
The level of expressed mRNA in the presence of chemical substance/The level of expressed mRNA in the absence of chemical substance (yeast gene YCR060W): 1.2
The level of expressed mRNA in the presence of chemical substance/The level of expressed mRNA in the absence of chemical substance (yeast gene YCR083W): 1.5
The level of expressed mRNA in the presence of chemical substance/The level of expressed mRNA in the absence of chemical substance (yeast gene YDL022W): 0.8
The level of expressed mRNA in the presence of chemical substance/The level of expressed mRNA in the absence of chemical substance (yeast gene YDL025C): 1.1
The level of expressed mRNA in the presence of chemical substance/The level of expressed mRNA in the absence of chemical substance (yeast gene YDR033W): 1.0
The level of expressed mRNA in the presence of chemical substance/The level of expressed mRNA in the absence of chemical substance (yeast gene YDR077W): 0.8
The level of expressed mRNA in the presence of chemical substance/The level of expressed mRNA in the absence of chemical substance (yeast gene YDR098C): 1.2
The level of expressed mRNA in the presence of chemical substance/The level of expressed mRNA in the absence of chemical substance (yeast gene YDR155C): 1.4
The level of expressed mRNA in the presence of chemical substance/The level of expressed mRNA in the absence of chemical substance (yeast gene YDR258C): 1.9
The level of expressed mRNA in the presence of chemical substance/The level of expressed mRNA in the absence of chemical substance (yeast gene YDR293C): 0.6
The level of expressed mRNA in the presence of chemical substance/The level of expressed mRNA in the absence of chemical substance (yeast gene YDR436W): 0.9
The level of expressed mRNA in the presence of chemical substance/The level of expressed mRNA in the absence of chemical substance (yeast gene YDR513W): 1.6
The level of expressed mRNA in the presence of chemical substance/The level of expressed mRNA in the absence of chemical substance (yeast gene YDR519W): 1.4
The level of expressed mRNA in the presence of chemical substance/The level of expressed mRNA in the absence of chemical substance (yeast gene YEL030W): 0.7
The level of expressed mRNA in the presence of chemical substance/The level of expressed mRNA in the absence of chemical substance (yeast gene YEL039C): 1.1
The level of expressed mRNA in the presence of chemical substance/The level of expressed mRNA in the absence of chemical substance (yeast gene YER042W): 1.7
The level of expressed mRNA in the presence of chemical substance/The level of expressed mRNA in the absence of chemical substance (yeast gene YER057C): 1.0
The level of expressed mRNA in the presence of chemical substance/The level of expressed mRNA in the absence of chemical substance (yeast gene YER103W): 0.9
The level of expressed mRNA in the presence of chemical substance/The level of expressed mRNA in the absence of chemical substance (yeast gene YER125W): 0.7
The level of expressed mRNA in the presence of chemical substance/The level of expressed mRNA in the absence of chemical substance (yeast gene YFL014W): 3.4
The level of expressed mRNA in the presence of chemical substance/The level of expressed mRNA in the absence of chemical substance (yeast gene YFL016C): 0.7
The level of expressed mRNA in the presence of chemical substance/The level of expressed mRNA in the absence of chemical substance (yeast gene YFL020C): 0.7
The level of expressed mRNA in the presence of chemical substance/The level of expressed mRNA in the absence of chemical substance (yeast gene YFR052W): 1.5
The level of expressed mRNA in the presence of chemical substance/The level of expressed mRNA in the absence of chemical substance (yeast gene YGL073W): 0.8
The level of expressed mRNA in the presence of chemical substance/The level of expressed mRNA in the absence of chemical substance (yeast gene YGL115W): 1.0
The level of expressed mRNA in the presence of chemical substance/The level of expressed mRNA in the absence of chemical substance (yeast gene YGL181W): 1.2
The level of expressed mRNA in the presence of chemical substance/The level of expressed mRNA in the absence of chemical substance (yeast gene YGR088W): 0.8
The level of expressed mRNA in the presence of chemical substance/The level of expressed mRNA in the absence of chemical substance (yeast gene YHL028W): 0.4
The level of expressed mRNA in the presence of chemical substance/The level of expressed mRNA in the absence of chemical substance (yeast gene YHL046C): 1.0
The level of expressed mRNA in the presence of chemical substance/The level of expressed mRNA in the absence of chemical substance (yeast gene YHR030C): 1.5
The level of expressed mRNA in the presence of chemical substance/The level of expressed mRNA in the absence of chemical substance (yeast gene YHR057C): 1.0
The level of expressed mRNA in the presence of chemical substance/The level of expressed mRNA in the absence of chemical substance (yeast gene YHR104W): 1.1
The level of expressed mRNA in the presence of chemical substance/The level of expressed mRNA in the absence of chemical substance (yeast gene YIL011W): 0.7
The level of expressed mRNA in the presence of chemical substance/The level of expressed mRNA in the absence of chemical substance (yeast gene YIL033C): 0.7
The level of expressed mRNA in the presence of chemical substance/The level of expressed mRNA in the absence of chemical substance (yeast gene YIR037W): 1.3
The level of expressed mRNA in the presence of chemical substance/The level of expressed mRNA in the absence of chemical substance (yeast gene YIR038C): 1.3
The level of expressed mRNA in the presence of chemical substance/The level of expressed mRNA in the absence of chemical substance (yeast gene YJL128C): 0.9
The level of expressed mRNA in the presence of chemical substance/The level of expressed mRNA in the absence of chemical substance (yeast gene YJL158C): 0.7
The level of expressed mRNA in the presence of chemical substance/The level of expressed mRNA in the absence of chemical substance (yeast gene YJL159W): 0.8
The level of expressed mRNA in the presence of chemical substance/The level of expressed mRNA in the absence of chemical substance (yeast gene YJL165C): 0.7
The level of expressed mRNA in the presence of chemical substance/The level of expressed mRNA in the absence of chemical substance (yeast gene YJR045C): 0.8
The level of expressed mRNA in the presence of chemical substance/The level of expressed mRNA in the absence of chemical substance (yeast gene YJR090C): 0.8
The level of expressed mRNA in the presence of chemical substance/The level of expressed mRNA in the absence of chemical substance (yeast gene YKL161C): 1.9
The level of expressed mRNA in the presence of chemical substance/The level of expressed mRNA in the absence of chemical substance (yeast gene YKL163W): 0.8
The level of expressed mRNA in the presence of chemical substance/The level of expressed mRNA in the absence of chemical substance (yeast gene YKL164C): 0.8
The level of expressed mRNA in the presence of chemical substance/The level of expressed mRNA in the absence of chemical substance (yeast gene YKL210W): 0.9
The level of expressed mRNA in the presence of chemical substance/The level of expressed mRNA in the absence of chemical substance (yeast gene YKR053C): 0.9
The level of expressed mRNA in the presence of chemical substance/The level of expressed mRNA in the absence of chemical substance (yeast gene YLL024C): 0.7
The level of expressed mRNA in the presence of chemical substance/The level of expressed mRNA in the absence of chemical substance (yeast gene YLL026W): 1.4
The level of expressed mRNA in the presence of chemical substance/The level of expressed mRNA in the absence of chemical substance (yeast gene YLL039C): 1.1
The level of expressed mRNA in the presence of chemical substance/The level of expressed mRNA in the absence of chemical substance (yeast gene YLL060C): 5.8
The level of expressed mRNA in the presence of chemical substance/The level of expressed mRNA in the absence of chemical substance (yeast gene YLR006C): 0.9
The level of expressed mRNA in the presence of chemical substance/The level of expressed mRNA in the absence of chemical substance (yeast gene YLR109W): 0.9
The level of expressed mRNA in the presence of chemical substance/The level of expressed mRNA in the absence of chemical substance (yeast gene YLR259C): 0.8
The level of expressed mRNA in the presence of chemical substance/The level of expressed mRNA in the absence of chemical substance (yeast gene YML007W): 1.9
The level of expressed mRNA in the presence of chemical substance/The level of expressed mRNA in the absence of chemical substance (yeast gene YML070W): 1.3
The level of expressed mRNA in the presence of chemical substance/The level of expressed mRNA in the absence of chemical substance (yeast gene YMR021C): 1.3
The level of expressed mRNA in the presence of chemical substance/The level of expressed mRNA in the absence of chemical substance (yeast gene YMR173W): 2.3
The level of expressed mRNA in the presence of chemical substance/The level of expressed mRNA in the absence of chemical substance (yeast gene YMR186W): 0.8
The level of expressed mRNA in the presence of chemical substance/The level of expressed mRNA in the absence of chemical substance (yeast gene YNL064C): 1.4
The level of expressed mRNA in the presence of chemical substance/The level of expressed mRNA in the absence of chemical substance (yeast gene YNL160W): 1.2
The level of expressed mRNA in the presence of chemical substance/The level of expressed mRNA in the absence of chemical substance (yeast gene YNL241C): 0.9
The level of expressed mRNA in the presence of chemical substance/The level of expressed mRNA in the absence of chemical substance (yeast gene YNR076W): 1.0
The level of expressed mRNA in the presence of chemical substance/The level of expressed mRNA in the absence of chemical substance (yeast gene YOL064C): 1.0
The level of expressed mRNA in the presence of chemical substance/The level of expressed mRNA in the absence of chemical substance (yeast gene YOL161C): 0.8
The level of expressed mRNA in the presence of chemical substance/The level of expressed mRNA in the absence of chemical substance (yeast gene YOR008C): 0.8
The level of expressed mRNA in the presence of chemical substance/The level of expressed mRNA in the absence of chemical substance (yeast gene YOR009W): 0.7
The level of expressed mRNA in the presence of chemical substance/The level of expressed mRNA in the absence of chemical substance (yeast gene YOR010C): 0.5
The level of expressed mRNA in the presence of chemical substance/The level of expressed mRNA in the absence of chemical substance (yeast gene YOR027W): 0.9
The level of expressed mRNA in the presence of chemical substance/The level of expressed mRNA in the absence of chemical substance (yeast gene YOR208W): 1.0
The level of expressed mRNA in the presence of chemical substance/The level of expressed mRNA in the absence of chemical substance (yeast gene YPL059W): 1.4
The level of expressed mRNA in the presence of chemical substance/The level of expressed mRNA in the absence of chemical substance (yeast gene YPL106C): 1.2
The level of expressed mRNA in the presence of chemical substance/The level of expressed mRNA in the absence of chemical substance (yeast gene YPL140C): 1.1
The level of expressed mRNA in the presence of chemical substance/The level of expressed mRNA in the absence of chemical substance (yeast gene YPL194W): 1.3
The level of expressed mRNA in the presence of chemical substance/The level of expressed mRNA in the absence of chemical substance (yeast gene YPL223C): 1.2
The level of expressed mRNA in the presence of chemical substance/The level of expressed mRNA in the absence of chemical substance (yeast gene YPL240C): 1.2
The level of expressed mRNA in the presence of chemical substance/The level of expressed mRNA in the absence of chemical substance (yeast gene YPR005C): 1.2
The level of expressed mRNA in the presence of chemical substance/The level of expressed mRNA in the absence of chemical substance (yeast gene YPR026W): 1.0
